Assay results reported in patent US4923868A, “8-fluoro and 7,8,10-trifluoro-9-(substituted)-6-oxo-6H-benzo(C)quinolizine-5-carboxyl ic acids” (American Cyanamid Company, priority 1989, dated 1990).
Values after ≈ are worked out from the molar mass of the structure shown. Like-named read-outs stand apart in the source and are kept apart here.

Key:
Test in all cases: In vitro antibacterial spectrum, agar plate dilution (MIC)
Format in all cases: cell-based
[1] = tested on: Enterobacter cloacae; settings: 18 h, 10^4 CFU, 35° C
Protocol: (§1) The in vitro antimicrobial spectrum of the compounds of the invention were determined by the agar plate dilution method with Mueller-Hinton agar and an inoculum of each test organism of approximately 10^4 colony forming units delivered by the Steers replicating device. The minimal inhibitory concentration (MIC) in mcg/ml is defined as the lowest concentration of test compound that inhibited visible growth after 18 hours incubation at 35° C.

[2] = tested on: Klebsiella nneumoniae; settings: Mueller-Hinton agar, 10^4 CFU, 18 h, 35° C
Protocol: as §1

[3] = tested on: Staphylococcus aureus; settings: Mueller-Hinton agar, 10^4 CFU, 18 h, 35° C
Protocol: as §1

[4] = tested on: Serratia marcescens; settings: 18 h, 10^4 CFU, 35° C
Protocol: as §1

[5] = tested on: Proteus rettgeri; settings: Providencia rettgeri; Proteus rettgeri IO 83-21; Mueller-Hinton agar, 10^4 CFU, 18 h, 35° C
Protocol: as §1

[6] = tested on: Citrobacter diversus; settings: Citrobacter koseri; Citrobacter diversus K 82-24; Mueller-Hinton agar, 10^4 CFU, 18 h, 35° C
Protocol: as §1

[7] = tested on: Escherichia coli; settings: 10^4 CFU, 35° C
Protocol: as §1

[8] = tested on: Streptococcus faecalis; settings: Mueller-Hinton agar, 10^4 CFU, 18 h, 35° C
Protocol: as §1

[9] = tested on: Providencia stuartii; settings: Providencia stuartii CMC 83-3; Mueller-Hinton agar, 10^4 CFU, 18 h, 35° C
Protocol: as §1

[10] = tested on: Morganella morganii; settings: 18 h, 10^4 CFU, 35° C
Protocol: as §1

[11] = tested on: Pseudomonas aeruginosa; settings: Mueller-Hinton agar, 10^4 CFU, 18 h, 35° C
Protocol: as §1

CN1CCN(c2cc3c(cc2F)c(=O)c(C(=O)O)c2ccccn23)CC1 [Example 6, 8-Fluoro-9-(4-methyl-1-piperazinyl)-6-oxo-6H-benzo[c]quinolizine-5-carboxylic acid]
MIC ([1]; Enterobacter cloacae K 84-10, Mueller-Hinton agar): 2 µg/mL (≈ 5.63 µM)
MIC ([1]; Enterobacter cloacae MOR 84-30, Mueller-Hinton agar): 16 µg/mL (≈ 45 µM)
MIC ([1]; Enterobacter cloacae VGH 84-39, Mueller-Hinton agar): 2 µg/mL (≈ 5.63 µM)
MIC ([2]; Klebsiella nneumoniae IO 83-5): 8 µg/mL (≈ 22.5 µM)
MIC ([2]; Klebsiella nneumoniae MOR 84-24, read-out: MIC): 8 µg/mL (≈ 22.5 µM)
MIC ([2]; Klebsiella oneumoniae CMC 84-31): 8 µg/mL (≈ 22.5 µM)
MIC ([3]; ATCC25913, Staphylococcus aureus ATCC 25913, read-out: MIC): > 16 µg/mL
MIC ([3]; Staphylococcus aureus CMC 83-131): > 16 µg/mL
MIC ([3]; Staphylococcus aureus K 82-26): > 16 µg/mL
MIC ([3]; Staphylococcus aureus VGH 84-47, read-out: MIC): > 16 µg/mL
MIC ([4]; Serratia marcescens CMC 83-74, Mueller-Hinton agar): > 16 µg/mL
MIC ([4]; Serratia marcescens IO 83-63, Mueller-Hinton agar): 4 µg/mL (≈ 11.3 µM)
MIC ([4]; Serratia marcescens MOR 84-41, Mueller-Hinton agar): 2 µg/mL (≈ 5.63 µM)
MIC [5]: 1 µg/mL (≈ 2.81 µM)
MIC [6]: 4 µg/mL (≈ 11.3 µM)
MIC ([7]; 18 h, Escherichia coli CMC 84-50, Mueller-Hinton agar): 2 µg/mL (≈ 5.63 µM)
MIC ([7]; 18 h, Escherichia coli D 21, Mueller-Hinton agar): 4 µg/mL (≈ 11.3 µM)
MIC ([7]; 18 h, Escherichia coli D 22, Mueller-Hinton agar): 2 µg/mL (≈ 5.63 µM)
MIC ([7]; 18 h, Escherichia coli MOR 84-20, Mueller-Hinton agar): 2 µg/mL (≈ 5.63 µM)
MIC ([7]; 18 h, Escherichia coli VGH 84-19, Mueller-Hinton agar): 4 µg/mL (≈ 11.3 µM)
MIC ([7]; ATCC25922, 18 h, Escherichia coli ATCC 25922, Mueller-Hinton agar): 4 µg/mL (≈ 11.3 µM)
MIC ([8]; Enterococcus faecalis, Streptococcus faecalis VCI 85-30, read-out: MIC): > 16 µg/mL
MIC ([8]; Streptococcus faecalis CMC 83-120): > 16 µg/mL
MIC ([8]; Streptococcus faecalis VGH 84-69): > 16 µg/mL
MIC [9]: > 16 µg/mL
MIC ([10]; Morganella morganii CMC 84-38, Mueller-Hinton agar): 0.5 µg/mL (≈ 1.41 µM)
MIC ([10]; Morganella morganii VGH 84-12, Mueller-Hinton agar): 4 µg/mL (≈ 11.3 µM)
MIC ([10]; Moroanella morganii MOR 84-45, Mueller-Hinton agar): 0.5 µg/mL (≈ 1.41 µM)
MIC ([11]; Pseudomonas aeruginosa CMC 83-20): > 16 µg/mL
MIC ([11]; Pseudomonas aeruginosa K 84-16, read-out: MIC): > 16 µg/mL
MIC ([11]; Pseudomonas aeruginosa VGH 84-3): > 16 µg/mL
